According to patent US8415475B2, “Antibacterial quinoline derivatives” (Janssen Pharmaceutica N.V., priority 2006, dated 2013):
In brackets after ≈: the same amount, converted by molar mass.

Experiments:
[1] = system: Staphylococcus aureus (ATCC29213); test: In-vitro anti-bacterial microtitre plate assay, IC90, S. aureus; type: cell-based; settings: 90% inhibitory concentration for bacterial growth, resazurin fluorescence; for IC90: Staphylococcus aureus, ATCC29213, 24 h, read-out: IC90 values STA 1 B29213; for IC90 values STA 1 B29213: 24 hours
Method: (§1) D.3. In-Vitro Method for Testing Compounds for Anti-Bacterial Activity Against Various Non-Mycobacterial Strains The bacteria used in this study were grown overnight in flasks containing 100 ml Mueller-Hinton Broth (Becton Dickinson-cat. no. 275730) in sterile de-ionized water, with shaking, at 37° C. Stocks (0.5 ml/tube) were stored at -70° C. until use. Bacteria titrations were performed in microtiter plates to detect the TCID50, in which the TCID50 represents the dilution that gives rise to bacterial growth in 50% of inoculated cultures. In general, an inoculum level of approximately 100 TCID50 was used for susceptibility testing. Flat-bottom, sterile 96-well plastic microtiter plates were filled with 180 μl of sterile deionized water, supplemented with 0.25% BSA. Subsequently, stock solutions (7.8× final test concentration) of compounds were added in 45 μl volumes in column 2. Serial five-fold dilutions (45 μl in 180 μl) were made directly in the microtiter plates from column 2 to reach column 11. Untreated control samples with (column 1) and without (column 12) inoculum were included in each microtiter plate. Depending on the bacteria type, approximately 10 to 60 CFU per well of bacteria inoculum (100 TCID50), in a volume of 100 μl in 2.8× Mueller-Hinton broth medium, was added to the rows […]. The same volume of broth medium without inoculum was added to column 12 in row A to H. The cultures were incubated at 37° C. for 24 hours under a normal atmosphere (incubator with open air valve and continuous ventilation). At the end of incubation, one day after inoculation, the bacterial growth was quantitated fluorometrically. Therefore resazurin (0.6 mg/ml) was added in a volume of 20 μl to all wells 3 hours after inoculation, and the plates were re-incubated overnight. A change in colour from blue to pink indicated the growth of bacteria. The fluorescence was read in a computer-controlled fluorometer (Cytofluor Biosearch) at an excitation wavelength of 530 nm and an emission wavelength of 590 nm. The % growth inhibition achieved by the compounds was calculated according to standard methods.

[2] = system: Streptococcus pneumoniae (ATCC6305); test: In-vitro anti-bacterial microtitre plate assay, IC90, S. pneumoniae; type: cell-based; settings: 90% inhibitory concentration for bacterial growth, resazurin fluorescence; for IC90: Streptococcus pneumoniae, ATCC6305, 24 h, read-out: IC90 values SPN 1 6305; for IC90 values SPN 1 6305: 24 hours
Method: as §1

[3] = system: Enterococcus faecalis (ATCC29212); test: In-vitro anti-bacterial microtitre plate assay, IC90, E. faecalis; type: cell-based; settings: 90% inhibitory concentration for bacterial growth, resazurin fluorescence; for IC90: Enterococcus faecalis, ATCC29212, 24 h, read-out: IC90 values EFA 29212
Method: as §1

M. Smegmatis (ATCC607) = test: In-vitro anti-bacterial activity against strain M. smegmatis ATCC607; type: cell-based; settings: 90% inhibitory concentration for bacterial growth, Alamar Blue fluorescence; for IC90: Mycolicibacterium smegmatis, ATCC607, 48 h, read-out: IC90 values MSM 1 ATCC607; for IC90 values MSM 1 ATCC607: 48 hours
Method: D.2. In-Vitro Method for Testing Compounds for Anti-Bacterial Activity Against Strain M. smegmatis ATCC607. Flat-bottom, sterile 96-well plastic microtiter plates were filled with 180 μl of sterile deionized water, supplemented with 0.25% BSA. Subsequently, stock solutions (7.8× final test concentration) of compounds were added in 45 μl volumes to a series of duplicate wells in column 2 so as to allow evaluation of their effects on bacterial growth. Serial five-fold dilutions (45 μl in 180 μl) were made directly in the microtiter plates from column 2 to 11 using a customised robot system (Zymark Corp., Hopkinton, Mass.). Pipette tips were changed after every 3 dilutions to minimize pipetting errors with high hydrophobic compounds. Untreated control samples with (column 1) and without (column 12) inoculum were included in each microtiter plate. Approximately 250 CFU per well of bacteria inoculum, in a volume of 100 μl in 2.8× Mueller-Hinton broth medium, was added to the rows […]. The same volume of broth medium without inoculum was added to column 12 in row A to H. The cultures were incubated at 37° C. for 48 hours in a humidified 5% CO2 atmosphere (incubator with open air valve and continuous ventilation). At the end of incubation, two days after inoculation, the bacterial growth was quantitated fluorometrically. Therefore Alamar Blue (10×) was added to all wells in a volume of 20 μl and plates were incubated for another 2 hours at […] The fluorescence was read in a computer-controlled fluorometer (Cytofluor, Biosearch) at an excitation wavelength of 530 nm and an emission wavelength of 590 nm (gain 30).

[4] = system: Streptococcus pyogens (ATCC8668); test: In-vitro anti-bacterial microtitre plate assay, IC90, S. pyogens; type: cell-based; settings: 90% inhibitory concentration for bacterial growth, resazurin fluorescence; for IC90: Streptococcus, ATCC8668, 24 h, read-out: IC90 values SPY 8668
Method: as §1

| SMILES | IC90 [1] | melting point | IC90 [2] | IC90 values STA 1 B29213 [1] | IC90 values SPN 1 6305 [2] | IC90 values MSM 1 ATCC607 (M. Smegmatis (ATCC607)) | also measured |
| --- | --- | --- | --- | --- | --- | --- | --- |
| C=Cc1ccc2nc(OC)c(C(c3ccc(Cl)cc3)C(O)(CCN(C)C)c3ccccc3)cc2c1 (single isomer, unassigned) [Compound 1] | 48.7 µg/mL (≈ 100 µM) | 184 °C | 1.7 µg/mL (≈ 3.49 µM) |  |  |  |  |
| C=Cc1ccc2nc(OC)c(C(c3ccc(Cl)cc3)C(O)(CCN(C)C)c3ccccc3)cc2c1 (single isomer, unassigned) [Compound 2] |  | 187 °C |  | 48.7 µg/mL (≈ 100 µM) | 1.7 µg/mL (≈ 3.49 µM) |  | IC90 [3]: 38.7 µg/mL (≈ 79.4 µM); IC90 (M. Smegmatis (ATCC607)): 1.4 µg/mL (≈ 2.87 µM); IC90 [4]: 1.22 µg/mL (≈ 2.5 µM) |
| COc1nc2ccc(/C=N/O)cc2cc1C(c1ccccc1)C(O)(CCCCN(C)C)c1ccccc1 (single isomer, unassigned) [Compound 3] | 7.9 µg/mL (≈ 15.9 µM) |  | 49.8 µg/mL (≈ 100 µM) |  |  |  | IC90 (M. Smegmatis (ATCC607)): 7.9 µg/mL (≈ 15.9 µM) |
| CO/N=C/c1ccc2nc(OC)c(C(c3ccccc3)C(O)(CCCCN(C)C)c3ccccc3)cc2c1 (single isomer, unassigned) [Compound 4] | 8.1 µg/mL (≈ 15.8 µM) |  | 10.2 µg/mL (≈ 19.9 µM) |  |  |  | IC90 (M. Smegmatis (ATCC607)): 1.6 µg/mL (≈ 3.13 µM) |
| C=Cc1ccc2nc(OC)c(C(c3ccccc3)C(O)(CCc3ccc(F)cc3)CCN(C)C)cc2c1 (single isomer, unassigned) [Compound 6] | 1.6 µg/mL (≈ 3.21 µM) | 135 °C | 1.3 µg/mL (≈ 2.61 µM) |  |  | 0.1 µg/mL (≈ 0.201 µM) |  |
| C=Cc1ccc2nc(OC)c(C(c3ccccc3)C(O)(CCc3ccc(F)cc3)CCN(C)C)cc2c1 (single isomer, unassigned) [Compound 7] |  | 156 °C |  | 1.6 µg/mL (≈ 3.21 µM) | 1.3 µg/mL (≈ 2.61 µM) | 1.3 µg/mL (≈ 2.61 µM) |  |
| C=Cc1ccc2nc(OC)c(C(c3ccccc3)C(O)(CCN(C)C)c3cccc4ccccc34)cc2c1 (single isomer, unassigned) [Compound 10] | 50.3 µg/mL (≈ 100 µM) |  |  |  | 20.0 µg/mL (≈ 39.8 µM) |  | IC90 (M. Smegmatis (ATCC607)): 8 µg/mL (≈ 15.9 µM) |
| C/C=C/c1ccc2nc(OC)c(C(c3ccccc3)C(O)(CCN(C)C)c3cccc4ccccc34)cc2c1 (single isomer, unassigned) [Compound 12] | 51.7 µg/mL (≈ 100 µM) | 189 °C |  |  | 0.7 µg/mL (≈ 1.35 µM) | 0.3 µg/mL (≈ 0.581 µM) | IC90 [3]: 51.7 µg/mL (≈ 100 µM); IC90 [4]: 51.7 µg/mL (≈ 100 µM) |
| CC#Cc1ccc2nc(OC)c(C(c3ccccc3)C(O)(CCN(C)C)c3cccc4ccccc34)cc2c1 (single isomer, unassigned) [Compound 13] | 51.5 µg/mL (≈ 100 µM) | 100 °C |  |  | 0.3 µg/mL (≈ 0.583 µM) | 0.003 µg/mL (≈ 0.00583 µM) | IC90 [3]: 51.5 µg/mL (≈ 100 µM); IC90 [4]: 51.5 µg/mL (≈ 100 µM) |
| CC#Cc1ccc2nc(OC)c(C(c3ccccc3)C(O)(CCN(C)C)c3cccc4ccccc34)cc2c1 (single isomer, unassigned) [Compound 14] |  | 202 °C |  | 45.9 µg/mL (≈ 89.2 µM) | 1.5 µg/mL (≈ 2.91 µM) | 0.3 µg/mL (≈ 0.583 µM) | IC90 values EFA 29212 ([3]; 24 hours): 51.47 µg/mL (≈ 100 µM); IC90 values SPY 8668 ([4]; 24 hours): 40.88 µg/mL (≈ 79.4 µM) |
| COc1nc2ccc(CN)cc2cc1C(c1ccccc1)C(O)(CCN(C)C)c1cccc2ccccc12 (single isomer, unassigned) [Compound 20] |  |  | 8 µg/mL (≈ 15.8 µM) | 35.8 µg/mL (≈ 70.8 µM) |  | 40.2 µg/mL (≈ 79.5 µM) |  |
| COc1nc2ccc(CN(C)C)cc2cc1C(c1ccccc1)C(O)(CCN(C)C)c1cccc2ccccc12 (single isomer, unassigned) [Compound 21] | 10.7 µg/mL (≈ 20 µM) |  | 13.4 µg/mL (≈ 25.1 µM) |  |  | 0.7 µg/mL (≈ 1.31 µM) |  |
| COc1nc2ccc(CN(C)C)cc2cc1C(c1ccccc1)C(O)(CCN(C)C)c1cccc2ccccc12 (single isomer, unassigned) [Compound 22] |  |  |  | 9.5 µg/mL (≈ 17.8 µM) | 21.3 µg/mL (≈ 39.9 µM) | 18.9 µg/mL (≈ 35.4 µM) |  |
| COc1nc2ccc(/C=N/O)cc2cc1C(c1ccccc1)C(O)(CCN(C)C)c1cccc2ccccc12 (single isomer, unassigned) [Compound 24] | 8.2 µg/mL (≈ 15.8 µM) | 167 °C |  |  | 1.6 µg/mL (≈ 3.08 µM) | 2.3 µg/mL (≈ 4.43 µM) |  |
| COc1nc2ccc(CN3CCN(C)CC3)cc2cc1C(c1ccccc1)C(O)(CCN(C)C)c1cccc2ccccc12 (single isomer, unassigned) [Compound 29] | 9.3 µg/mL (≈ 15.8 µM) |  | 10.5 µg/mL (≈ 17.8 µM) |  |  |  | IC90 (M. Smegmatis (ATCC607)): 2.6 µg/mL (≈ 4.42 µM) |
| COc1nc2ccc(/C=N/O)cc2cc1C(c1ccccc1)C(O)(CCCCN(C)C)c1ccc2ccccc2c1 (single isomer, unassigned) [Compound 32] | 1.7 µg/mL (≈ 3.1 µM) |  |  |  | 10.9 µg/mL (≈ 19.9 µM) | 7.7 µg/mL (≈ 14.1 µM) |  |
| COc1nc2ccc(/C=N/O)cc2cc1C(c1ccccc1)C(O)(CCCCN(C)C)c1ccc2ccccc2c1 (single isomer, unassigned) [Compound 33] |  | 180 °C |  | 1.7 µg/mL (≈ 3.1 µM) | 1.9 µg/mL (≈ 3.47 µM) | 1.7 µg/mL (≈ 3.1 µM) |  |
| C=Cc1ccc2nc(OC)c(C(c3ccccc3)C(O)(CCCCN3CCCCC3)c3ccccc3)cc2c1 (single isomer, unassigned) [Compound 34] | 1.7 µg/mL (≈ 3.26 µM) |  |  |  | 2.1 µg/mL (≈ 4.03 µM) |  | IC90 (M. Smegmatis (ATCC607)): 1.7 µg/mL (≈ 3.26 µM) |
| C=Cc1ccc2nc(OC)c(C(c3ccccc3)C(O)(CCCCN3CCCCC3)c3ccccc3)cc2c1 (single isomer, unassigned) [Compound 35] |  |  |  | 1.7 µg/mL (≈ 3.26 µM) | 10.4 µg/mL (≈ 20 µM) | 1.7 µg/mL (≈ 3.26 µM) |  |
| COc1nc2ccc(C(=O)c3cccc(Br)c3)cc2cc1C(c1ccc(Cl)cc1)C(O)(CCN(C)C)c1ccccc1 (single isomer, unassigned) [Compound 40] |  | 185 °C |  |  |  |  |  |
| COc1nc2ccc(C(=O)c3cccc(Br)c3)cc2cc1C(c1ccccc1)C(O)(CCN(C)C)c1cccc2ccccc12 (stereo not drawn) [Compound 38] |  | 118 °C |  |  |  |  |  |
